This passage reports EC50 results from patent publication US10800772B2 (Gilead Sciences, Inc., priority 2016, dated 2020).

Common to all, as to assay type: cell-based, HIV-1
One experiment concerns HIV-IIIb (wildtype). The experiment in a line: Antiviral assay in MT4 cells, HIV-IIIb wildtype. The note with it: read-out: WT EC50. As to the method: (§1) Antiviral Assay in MT4 Cells
(§2) For the antiviral assay, 0.4 μL of 189X test concentration of 3-fold serially diluted compound in DMSO was added to 40 μL of cell growth medium (RPMI 1640, 10% FBS, 1% Penicillin-Streptomycin, 1% L-Glutamine, 1% HEPES) in each well of 384-well plate (10 concentrations) in quadruplicate.
(§3) 1 mL Aliquots of MT4 cells were pre-infected for 3 hours at 37° C. with 25 μL of cell growth medium (mock-infected) or a fresh 1:250 dilution of an HIV-IIIb (wildtype, IN T174I BT, or IN T174I DE) concentrated ABI stock (0.004 m.o.i.). IN T174I BT virus was derived from viral breakthrough (BT) assay as described in Mulato, A.; Hansen, D.; Thielen, A.; Porter, D.; Stepan, G.; White, K.; Daeumer, M.; Cihlar, T.; Yant, S. R. AIDS Research and Human Retrovirues, July 2016, ahead of print. doi:10.1089/aid.2016.0071. IN T174I DE virus was derived from serial passaging with dose escalation (DE) of test compound. Infected and uninfected cells were diluted in cell growth media and 35 μL (2000 cells) was added to each well of the assay plates.
(§4) Assay plates were then maintained in a humidified, 5% CO2 incubator at 37° C. After 5 days of incubation, 25 μl of 2× concentrated CellTiter-Glo™ Reagent (catalog # G7573, Promega Biosciences, Inc., Madison, Wis.) was added to each well of the assay plate. Cell lysis was carried out by incubating at room temperature for 10 minutes and then chemiluminescence was read using an Envision plate reader (PerkinElmer). EC50 values were calculated as the compound concentration that caused a 50% […] in luminescence signal, a measure of HIV-1 replication.

The next experiment has as its system HIV-IIIb IN T174I DE. The experiment in a line: Antiviral assay in MT4 cells, HIV-IIIb IN T174I DE virus (from dose escalation passaging). As to the method:
as §1, §2, §3, §4

The test system of the next experiment is HIV-IIIb IN T174I BT. The experiment in a line: Antiviral assay in MT4 cells, HIV-IIIb IN T174I BT virus (from viral breakthrough). The method, then:
as §1, §2, §3, §4

The mark [1] stands for this setting: Human immunodeficiency virus 1, IIIB, MT4, 120 h.
Setting [2] is: Human immunodeficiency virus 1, IIIB, MT4, 120 h, read-out: T174I DE EC50, MT4 cells, HIV-IIIb IN T174I DE (dose escalation), 5 days, CellTiter-Glo.
Where [3] appears, read: Human immunodeficiency virus 1, IIIB, MT4, 120 h, read-out: T174I BT EC50, MT4 cells, HIV-IIIb IN T174I BT (viral breakthrough), 5 days, CellTiter-Glo.

pEC50: −log10 of the molar value. Like-named read-outs stand apart in the source and are kept apart here.

Usually pEC50 stands for the negative decadic logarithm of the EC50, by convention in mol/L. For “(S)-2-(2-(3-(1- ((R)-1-acetyl- pyrrolidin-3-yl) piperidin-4-yl)- 1-methyl-1H- pyrazolo[4,3-b] pyridin-5-yl)-7- (4-chlorophenyl)- 5-methylbenzo[d] thiazol-6-yl)-2- (tert-butoxy) acetic acid [Compound 169]”, the pEC50 in the experiment on HIV-IIIb (wildtype) (MT4 cells, HIV-IIIb wildtype, 5 days, CellTiter-Glo) is 8.70; with HIV-IIIb IN T174I DE (MT4 cells, HIV-IIIb IN T174I DE (dose escalation), 5 days, CellTiter-Glo, read-out: T174I DE EC50) it was 7.07; with HIV-IIIb IN T174I BT (MT4 cells, HIV-IIIb IN T174I BT (viral breakthrough), 5 days, CellTiter-Glo, read-out: T174I BT EC50), 7.44.
Regarding `COC(=O)N1CC(N2CCC(c3cn(C)c4ncc(-c5nc6cc(C)c([C@H](OC(C)(C)C)C(=O)O)c(-c7ccc(Cl)cc7)c6s5)cc34)CC2)C1` [Compound 203, (S)-2-(tert-butoxy)-2-(7-(4-chloro-phenyl)-2-(3-(1-(1-(methoxycarbonyl)azetidin-3-yl)piperidin-4-yl)-1-methyl-1H-pyrrolo[2,3-b]pyridin-5-yl)-5-methylbenzo[d]thiazol-6-yl) acetic acid], the results for the pEC50 in the experiment with HIV-IIIb (wildtype) (setting [1]), in the experiment with HIV-IIIb IN T174I DE (setting [2]) and with HIV-IIIb IN T174I BT (setting [3]) were 7.96, 6.15 and 6.67, respectively.
With `Cc1cc2nc(-c3ccc4c(c3)c(C3CN(C)C3)nn4C)sc2c(-c2ccc(Cl)cc2)c1[C@H](OC(C)(C)C)C(=O)O` [Compound 57, (S)-2-(tert-butoxy)-2-(7-(4-chlorophenyl)-5-methyl-2-(1-methyl-3-(1-methylazetidin-3-yl)-1H-indazol-5-yl)benzo[d]thiazol-6-yl)acetic acid], the pEC50 in the experiment with HIV-IIIb (wildtype) (setting [1]) is 7.89; with HIV-IIIb IN T174I DE (setting [2]), 5.38; with HIV-IIIb IN T174I BT (setting [3]), 5.37.
With `Cc1cc2nc(-c3ccc4c(c3)c(C3CCN(C5COC5)CC3)nn4CC(F)(F)F)sc2c(-c2ccc(Cl)cc2)c1[C@H](OC(C)(C)C)C(=O)O` [Compound 41, (S)-2-(tert-butoxy)-2-(7-(4-chlorophenyl)-5-methyl-2-(3-(1-(oxetan-3-yl)piperidin-4-yl)-1-(2,2,2-trifluoroethyl)-1H-indazol-5-yl)benzo[d]thiazol-6-yl)acetic acid], the pEC50 with HIV-IIIb (wildtype) (setting [1]) was 5.42; in the experiment on HIV-IIIb IN T174I DE (setting [2]), 5.28; in the experiment with HIV-IIIb IN T174I BT (setting [3]) it was 5.30.
On to `[2H]C([2H])([2H])n1nc(C2CCN(C3COC3)CC2)c2cc(-c3nc4cc(C)c([C@H](OC(C)(C)C)C(=O)O)c(-c5ccc(Cl)cc5)c4s3)ccc21` [Compound 40, (S)-2-(tert-butoxy)-2-(7-(4-chlorophenyl)-5-methyl-2-(1-(methyl-d3)-3-(1-(oxetan-3-yl)piperidin-4-yl)-1H-indazol-5-yl)benzo[d]thiazol-6-yl)acetic acid], for which the pEC50 in the experiment with HIV-IIIb (wildtype) (setting [1]) is 8.00; in the experiment on HIV-IIIb IN T174I DE (setting [2]), 6.29; with HIV-IIIb IN T174I BT (setting [3]), 6.59.
As to `COC(=O)N1CC[C@@H](N2CCC(c3cn(C)c4ncc(-c5nc6cc(C)c([C@H](OC(C)(C)C)C(=O)O)c(-c7ccc(Cl)cc7)c6s5)cc34)CC2)C1` [Compound 201, (S)-2-(tert-butoxy)-2-(7-(4-chloro-phenyl)-2-(3-(1-((R)-1-(methoxy-carbonyl)pyrrolidin-3-yl)piperidin-4-yl)-1-methyl-1H-pyrrolo[2,3-b]pyridin-5-yl)-5-methylbenzo[d]thiazol-6-yl) acetic acid], the pEC50 with HIV-IIIb (wildtype) (setting [1]) is 8.15; in the experiment on HIV-IIIb IN T174I DE (setting [2]), 6.28; in the experiment on HIV-IIIb IN T174I BT (setting [3]), 7.04.
Turning to `Cc1cc2nc(-c3ccc4c(c3)c(N3CCC(C)(C(=O)N(C)C)CC3)nn4C)sc2c(-c2ccc(Cl)cc2)c1[C@H](OC(C)(C)C)C(=O)O` [Compound 137, (S)-2-(tert-butoxy)-2-(7-(4-chloro-phenyl)-2-(3-(4-(dimethyl-carbamoyl)-4-methylpiperidin-1-yl)-1-methyl-1H-indazol-5-yl)-5-methylbenzo[d]thiazol-6-yl) acetic acid], the pEC50 was 8.00 in the experiment with HIV-IIIb (wildtype) (setting [1]), 6.02 in the experiment on HIV-IIIb IN T174I DE (setting [2]) and 6.16 in the experiment with HIV-IIIb IN T174I BT (setting [3]).
Turning to `Cc1cc2nc(-c3ccc4c(n3)c(C3CCN([C@H]5C[C@H](O)C5)CC3)nn4C)sc2c(-c2ccc(Cl)cc2)c1[C@H](OC(C)(C)C)C(=O)O` [Compound 186, (S)-2-(tert-butoxy)-2-(7-(4-chloro-phenyl)-2-(3-(1-((1r,3r)-3-hydroxy-cyclobutyl)piperidin-4-yl)-1-methyl-1H-pyrazolo[4,3-b]pyridin-5-yl)-5-methylbenzo[d]thiazol-6-yl) acetic acid], the pEC50 is 7.54 with HIV-IIIb (wildtype) (setting [1]), 6.11 with HIV-IIIb IN T174I DE (setting [2]) and 6.44 in the experiment on HIV-IIIb IN T174I BT (setting [3]).
Consider `CC(=O)N1CC[C@H]1CN1CCC(c2nn(C)c3ccc(-c4nc5cc(C)c([C@H](OC(C)(C)C)C(=O)O)c(-c6ccc(Cl)cc6)c5s4)cc23)CC1` [Compound 151, (S)-2-(2-(3-(1-(((S)-1-acetyl-azetidin-2-yl)methyl)piperidin-4-yl)-1-methyl-1H-indazol-5-yl)-7-(4-chloro-phenyl)-5-methylbenzo[d]thiazol-6-yl)-2-(tert-butoxy) acetic acid], for which the pEC50 in the experiment with HIV-IIIb (wildtype) (setting [1]) is 7.80; in the experiment on HIV-IIIb IN T174I DE (setting [2]), 6.64; with HIV-IIIb IN T174I BT (setting [3]) it was 6.63.
With `Cc1cc2nc(-c3ccc4c(c3)c(C3CCN([C@@H]5CCN(C)C5)CC3)nn4C)sc2c(-c2ccc(Cl)cc2)c1[C@H](OC(C)(C)C)C(=O)O` [Compound 164, (S)-2-(tert-butoxy)-2-(7-(4-chloro-phenyl)-5-methyl-2-(1-methyl-3-(1-((R)-1-methyl-pyrrolidin-3-yl)piperidin-4-yl)-1H-indazol-5-yl)benzo[d]thiazol-6-yl)acetic acid], the pEC50 is 7.82 with HIV-IIIb (wildtype) (setting [1]), 6.74 with HIV-IIIb IN T174I DE (setting [2]) and 6.74 in the experiment with HIV-IIIb IN T174I BT (setting [3]).
Turning to `[2H]C([2H])([2H])n1nc(C2CCN(C3CN(C(=O)OC)C3)CC2)c2nc(-c3nc4cc(C)c([C@H](OC(C)(C)C)C(=O)O)c(-c5ccc(Cl)cc5)c4s3)ccc21` [Compound 191, (S)-2-(tert-butoxy)-2-(7-(4-chloro-phenyl)-2-(3-(1-(1-(methoxycarbonyl)azetidin-3-yl)piperidin-4-yl)-1-(methyl-d3)-1H-pyrazolo[4,3-b]pyridin-5-yl)-5-methylbenzo[d]thiazol-6-yl) acetic acid], the pEC50 in the experiment on HIV-IIIb (wildtype) (setting [1]) is 8.70; in the experiment on HIV-IIIb IN T174I DE (setting [2]) it was 6.97; in the experiment on HIV-IIIb IN T174I BT (setting [3]), 7.26.
Turning to `Cc1cc2nc(-c3ccc4c(c3)c(C3CCN(C(=O)OC(C)(C)C)C3)nn4C)sc2c(-c2ccc(Cl)cc2)c1[C@H](OC(C)(C)C)C(=O)O` (stereo partly drawn) [Compound 62, (2S)-2-(tert-butoxy)-2-(2-(3-(1-(tert-butoxycarbonyl)pyrrolidin-3-yl)-1-methyl-1H-indazol-5-yl)-7-(4-chlorophenyl)-5-methylbenzo[d]thiazol-6-yl)acetic acid], the pEC50 is 6.97 in the experiment on HIV-IIIb (wildtype) (setting [1]), 6.29 with HIV-IIIb IN T174I DE (setting [2]) and 6.48 with HIV-IIIb IN T174I BT (setting [3]).
Take `Cc1cc2nc(-c3ccc4c(c3)c(N3CCN5C(=O)COC[C@@H]5C3)nn4C)sc2c(-c2ccc(Cl)cc2)c1[C@H](OC(C)(C)C)C(=O)O` [Compound 138, (S)-2-(tert-butoxy)-2-(7-(4-chloro-phenyl)-5-methyl-2-(1-methyl-3-((S)-4-oxohexa-hydropyrazino[2,1-c][1,4]oxazin-8 (1H)-yl)-1H-indazol-5-yl)benzo[d]thiazol-6-yl)acetic acid]: the pEC50 in the experiment on HIV-IIIb (wildtype) (setting [1]) was 8.15; in the experiment on HIV-IIIb IN T174I DE (setting [2]), 6.17; in the experiment on HIV-IIIb IN T174I BT (setting [3]), 6.43.
On to `Cc1cc2nc(-c3ccc4c(c3)c(C3CCN(C(=O)C5CCO5)CC3)nn4C)sc2c(-c2ccc(Cl)cc2)c1[C@H](OC(C)(C)C)C(=O)O` (stereo partly drawn) [Compound 159, (2S)-2-(tert-butoxy)-2-(7-(4-chloro-phenyl)-5-methyl-2-(1-methyl-3-(1-(oxetane-2-carbonyl)piperidin-4-yl)-1H-indazol-5-yl)benzo[d]thiazol-6-yl) acetic acid], for which the figures for the pEC50 in the experiment with HIV-IIIb (wildtype) (setting [1]), with HIV-IIIb IN T174I DE (setting [2]) and in the experiment with HIV-IIIb IN T174I BT (setting [3]) were 7.96, 6.23 and 6.37, respectively.
Regarding `[2H]C([2H])([2H])n1nc(C2CCN(C3COC3)CC2)c2nc(-c3nc4cc(C)c([C@H](OC(C)(C)C)C(=O)O)c(-c5ccc(Cl)cc5)c4s3)ccc21` [Compound 176, (S)-2-(tert-butoxy)-2-(7-(4-chloro-phenyl)-5-methyl-2-(1-(methyl-d3)-3-(1-(oxetan-3-yl)piperidin-4-yl)-1H-pyrazolo[4,3-b]pyridin-5-yl)benzo[d]thiazol-6-yl)acetic acid], the pEC50 in the experiment with HIV-IIIb (wildtype) (setting [1]) is 8.52; in the experiment on HIV-IIIb IN T174I DE (setting [2]), 6.67; with HIV-IIIb IN T174I BT (setting [3]), 7.07.
